Test results as given in patent US20230115176A1 (Ra Pharmaceuticals, Inc., priority 2019, published 2023).
≈ marks a conversion by molar mass, not a printed value.

How the values were obtained:
[1] = Kinetic solubility in PBS pH 7.4, HPLC-UV (Example 21, Table 27); format: physicochemical; conditions: phosphate buffered saline, aqueous buffer, kinetic from dmso stock, 0.5 M PBS, shaken minimum 24 h at approximately 25° C., HPLC-UV 270 nm
Procedure, shortened: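 Supernatant measured by HPLC-UV (270 nm) against a DMSO calibration curve of 15.6–500.0 μM after filtration. Triplicate samples were made from 10 mM DMSO stock in 0.05 M phosphate buffer pH 7.4 (5% DMSO) and shaken at least 24 h at about 25 °C.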

[2] = molecular target: human C5 complement protein (Homo sapiens, UniProt P01031); assay: Surface plasmon resonance (SPR), immobilized human C5, 37° C. (Example 12, Table 21); format: binding; conditions: where a range of compound concentrations were analyzed, the lowest value obtained
Description: (§1) Compound CU0136 is a racemic mixture of Compound CU0186 and CU0187. Numbers in parenthesis following compound numbers indicate alternate enantiomers (as distinguished by retention time during chromatographical separation).

Human C5 [3] = molecular target: T1, Human C5 (Homo sapiens, UniProt P01031); assay: Red blood cell (RBC) hemolysis assay, luminescent (Example 13, Table 22); format: cell-based; conditions: sheep EA cells, […] C5-depleted human serum, 0.5 nM human C5, 1 hour 37° C., luminescence; note: 1.5% C5-depleted human serum
T1 construct: purchased Complement Technology
Description: as §1

Human C5 [4] = molecular target: T1, Human C5; assay: Red blood cell (RBC) hemolysis assay, luminescent (Example 24, Table 29); format: cell-based; conditions: sheep EA cells, […] C5-depleted human serum, 0.5 nM human C5, 1 hour at 37° C., luminescence (Table 29)
Description: Numbers in parenthesis following the compound number indicate alternate enantiomers (as distinguished by retention time during chromatographical separation).

Sequence of human C5 complement protein (P01031 19-1676): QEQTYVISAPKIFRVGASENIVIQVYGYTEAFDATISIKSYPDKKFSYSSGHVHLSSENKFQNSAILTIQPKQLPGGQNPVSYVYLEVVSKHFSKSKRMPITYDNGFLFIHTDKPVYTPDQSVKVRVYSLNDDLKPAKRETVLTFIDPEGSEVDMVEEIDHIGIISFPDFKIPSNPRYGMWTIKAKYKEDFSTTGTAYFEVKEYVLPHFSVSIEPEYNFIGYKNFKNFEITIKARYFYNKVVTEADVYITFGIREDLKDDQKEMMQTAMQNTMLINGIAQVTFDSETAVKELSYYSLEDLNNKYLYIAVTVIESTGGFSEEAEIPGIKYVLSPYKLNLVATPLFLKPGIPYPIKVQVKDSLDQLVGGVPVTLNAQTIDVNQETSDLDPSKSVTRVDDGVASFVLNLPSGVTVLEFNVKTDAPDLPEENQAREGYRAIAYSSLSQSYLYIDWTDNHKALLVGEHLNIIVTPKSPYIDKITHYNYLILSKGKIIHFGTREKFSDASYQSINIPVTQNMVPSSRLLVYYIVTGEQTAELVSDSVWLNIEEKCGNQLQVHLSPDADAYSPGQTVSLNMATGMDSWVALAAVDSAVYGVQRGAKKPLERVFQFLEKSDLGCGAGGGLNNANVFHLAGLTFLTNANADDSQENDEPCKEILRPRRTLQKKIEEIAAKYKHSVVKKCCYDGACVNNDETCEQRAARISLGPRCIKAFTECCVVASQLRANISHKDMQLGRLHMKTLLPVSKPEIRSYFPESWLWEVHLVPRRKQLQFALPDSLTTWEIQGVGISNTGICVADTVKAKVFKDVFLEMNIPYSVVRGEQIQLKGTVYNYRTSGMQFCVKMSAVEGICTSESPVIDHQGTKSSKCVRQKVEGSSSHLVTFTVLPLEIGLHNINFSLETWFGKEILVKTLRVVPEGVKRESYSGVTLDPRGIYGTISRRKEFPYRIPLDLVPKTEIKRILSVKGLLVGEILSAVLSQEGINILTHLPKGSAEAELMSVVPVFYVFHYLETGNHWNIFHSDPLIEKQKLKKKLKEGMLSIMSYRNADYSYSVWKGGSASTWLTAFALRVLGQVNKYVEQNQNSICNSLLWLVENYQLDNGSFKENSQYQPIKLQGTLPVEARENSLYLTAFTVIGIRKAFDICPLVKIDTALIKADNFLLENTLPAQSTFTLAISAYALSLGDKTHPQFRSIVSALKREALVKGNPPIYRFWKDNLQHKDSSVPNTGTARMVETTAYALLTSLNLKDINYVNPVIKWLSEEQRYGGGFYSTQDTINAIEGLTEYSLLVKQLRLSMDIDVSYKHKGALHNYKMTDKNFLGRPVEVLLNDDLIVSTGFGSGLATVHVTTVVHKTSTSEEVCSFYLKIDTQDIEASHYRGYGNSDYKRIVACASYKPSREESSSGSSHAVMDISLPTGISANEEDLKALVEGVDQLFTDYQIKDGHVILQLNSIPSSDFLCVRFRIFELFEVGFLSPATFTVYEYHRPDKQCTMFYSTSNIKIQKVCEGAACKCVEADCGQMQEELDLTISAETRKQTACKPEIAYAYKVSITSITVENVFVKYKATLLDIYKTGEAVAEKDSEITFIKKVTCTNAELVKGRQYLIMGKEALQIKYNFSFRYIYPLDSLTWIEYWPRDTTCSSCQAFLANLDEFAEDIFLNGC
T1 sequence (P01031 19-1676): as above

With `CCCCCOc1cc(N2CCCN(Cc3ccc(CC(=O)N4CCCN(C)CC4)cc3OC)C2=O)ccc1OC` [CU0104] the solubility kinetic [1] was 269 µM (≈ 152 µg/mL), the Kd [2] was 0.6 nM and the IC50 (Human C5 [3]) was 23.8 nM.
Molecule `CCCCCOc1cc(N2CCCN(Cc3ccc(CC(=O)N4CCOC(COC)C4)cc3OC)C2=O)ccc1OC` (stereo not drawn) [CU0105] has a solubility kinetic [1] of 427 µM (≈ 249 µg/mL), a Kd [2] of 1.9 nM and an IC50 (Human C5 [3]) of 130 nM.
Molecule `CCCCCOc1cc(N2CCCN(Cc3ccc(CC(=O)N[C@H]4CN(C)C[C@H]4F)cc3OC)C2=O)ccc1OC` [CU0106] has a solubility kinetic [1] of 453 µM (≈ 259 µg/mL), a Kd [2] of 2 nM and an IC50 (Human C5 [3]) of 43.9 nM.
Molecule `CCCCCOc1cc(N2CCCN(Cc3ccc(CC(=O)N4CC(=O)N(C)C(C)C4)cc3OC)C2=O)ccc1OC` (stereo not drawn) [CU0107] has a solubility kinetic [1] of 266 µM (≈ 154 µg/mL), a Kd [2] of 2 nM and an IC50 (Human C5 [3]) of 38 nM.
In the case of `CCCCCOc1cc(N2CCCN(Cc3ccc(CC(=O)N[C@@H]4CNC[C@H]4F)cc3OC)C2=O)ccc1OC` [CU0108], the solubility kinetic [1] is reported as over 500 µM, the Kd [2] is reported as 1.2 nM and the IC50 (Human C5 [3]) is reported as 19.5 nM.
Molecule `CCCCCOc1cc(N2CCCN(Cc3ccc(CC(=O)NC4CCN(C(C)C)CC4)cc3OC)C2=O)ccc1OC` [CU0109] has a solubility kinetic [1] of over 500 µM, a Kd [2] of 1.1 nM and an IC50 (Human C5 [3]) of 18.6 nM.
In the case of `CCCCCOc1cc(N2CCCN(Cc3ccc(CC(=O)NC4CCN(C(C)=O)C4)cc3OC)C2=O)ccc1OC` (stereo not drawn) [CU0110], the solubility kinetic [1] is reported as 295 µM (≈ 171 µg/mL), the Kd [2] is reported as 2 nM and the IC50 (Human C5 [3]) is reported as 16.4 nM.
Work on `CCCCCOc1cc(N2CCCN(Cc3ccc(CCN4CCCC4)cc3OC)C2=O)ccc1OC` [CU0123] yielded a solubility kinetic [1] of 404 µM (≈ 206 µg/mL), a Kd [2] of 4.2 nM and an IC50 (Human C5 [3]) of 17.1 nM.
`CCCCCOc1cc(N2CCCN(Cc3cccc(-c4cnn(C5CCN(C)CC5)c4)c3F)C2=O)ccc1OC` [CU0127] gave a Kd [2] of 9.5 nM and an IC50 (Human C5 [3]) of 30.2 nM.
In the case of `CCCCCOc1cc(N2CCCN(Cc3cc(-c4cnn(C5COC5)c4)ccc3OC)C2=O)ccc1OC` [CU0129], the Kd [2] is reported as 23.8 nM and the IC50 (Human C5 [3]) is reported as 61.5 nM.
With `CCCCCOc1cc(N2CCCN(Cc3cccc4c3c(C)cn4CC(=O)N(C)C)C2=O)ccc1OC` [CU0231] the solubility kinetic [1] was 64 µM (≈ 33.3 µg/mL), the Kd [2] was 0.9 nM and the IC50 (Human C5 [3]) was 20.3 nM.
In the case of `CCCCCOc1cc(N2CCCN(Cc3cccc4c3c(F)cn4CC(=O)N(C)C)C2=O)ccc1OC` [CU0232], the solubility kinetic [1] is reported as under 10 µM, the Kd [2] is reported as 1.3 nM and the IC50 (Human C5 [3]) is reported as 21.6 nM.
For `CCCCCOc1cc(N2CCCN(Cc3cccc4c3ccn4CC(=O)N3CCCC3)C2=O)ccc1OC` [CU0235], the Kd [2] was 3.8 nM and the IC50 (Human C5 [3]) was 29.4 nM.
Molecule `CCCCCOc1cc(N2CC[C@H](C)N(Cc3cccc4c3ccn4CC(=O)N3CCNC(=O)C3)C2=O)ccc1OC` [SC0003] has an IC50 (Human C5 [4]) of 9.9 nM.
For `CCCCCOc1cc(N2CC[C@H](C)N(Cc3cccc4c3ccn4CC(=O)N3CCCOCC3)C2=O)ccc1OC` [SC0004], the IC50 (Human C5 [4]) was 10.5 nM.
Molecule `CCCCCOc1cc(N2CC[C@H](C)N(Cc3cccc4c3ccn4CC(=O)N3CCOC(COC)C3)C2=O)ccc1OC` (stereo partly drawn) [SC0005] has an IC50 (Human C5 [4]) of 11.2 nM.
Work on `CCCCCOc1cc(N2CC[C@H](C)N(Cc3cccc4c3ccn4CC(=O)NC3CC(O)C3)C2=O)ccc1OC` (stereo partly drawn) [SC0006] yielded an IC50 (Human C5 [4]) of 11.2 nM.
For `CCCCCOc1cc(N2CC[C@H](C)N(Cc3cccc4[nH]ccc34)C2=O)ccc1OC` [SC0010], the IC50 (Human C5 [4]) was 24.7 nM.
For `CCCCCOc1cc(N2CC[C@H](C)N(Cc3cccc4c3ccn4CC(=O)N3CCOCC3)C2=O)ccc1OC` [SC0012], the IC50 (Human C5 [4]) was 28.5 nM.
For `CCCCCOc1cc(N2CC[C@H](C)N(Cc3cccc4c3ccn4Cc3cccnc3)C2=O)ccc1OC` [SC0013], the IC50 (Human C5 [4]) was 46.7 nM.
For `CCCCCOc1cc(N2CC[C@@H](C)N(Cc3cccc4c3ccn4CC(=O)N(C)C)C2=O)ccc1OC` [SC0014], the IC50 (Human C5 [4]) was 146 nM.
Molecule `CCCCCOc1cc(N2CC[C@@H](C)N(Cc3ccnc4[nH]ccc34)C2=O)ccc1OC` [SC0015] has an IC50 (Human C5 [4]) of 222 nM.
Work on `CCCCCOc1cc(N2CC(CO)CN(Cc3cc(F)ccc3OC)C2=O)ccc1OC` (stereo not drawn) [SC0016(1)] yielded an IC50 (Human C5 [4]) of 8.4 nM.
Molecule `CCCCCOc1cc(N2CC(CO)CN(Cc3cc(F)ccc3OC)C2=O)ccc1OC` (stereo not drawn) [SC0016(2)] has an IC50 (Human C5 [4]) of 12.8 nM.
In the case of `CCCCCOc1cc(N2CC(C)CN(Cc3cc(F)ccc3OC)C2=O)ccc1OC` (stereo not drawn) [SC0018], the IC50 (Human C5 [4]) is reported as 44.7 nM.
For `CCCCCOc1cc(N2CC(C)CN(Cc3ccc(CC(=O)O)cc3OC)C2=O)ccc1OC` (stereo not drawn) [SC0019], the IC50 (Human C5 [4]) was 55.9 nM.
`CCCCCOc1cc(N2C[C@H](C)CN(Cc3cc(F)ccc3OC)C2=O)ccc1OC` [SC0020] showed an IC50 (Human C5 [4]) of 66.8 nM.
With `CCCCCOc1cc(N2C[C@@H](C)CN(Cc3cc(F)ccc3OC)C2=O)ccc1OC` [SC0021] the IC50 (Human C5 [4]) was 71.5 nM.
`CCCCCOc1cc(N2CC(O)(CO)CN(Cc3cc(F)ccc3OC)C2=O)ccc1OC` (stereo not drawn) [SC0022] showed an IC50 (Human C5 [4]) of 140 nM.
With `CCCCCOc1cc(N2CC(COCc3ccncn3)CN(Cc3cc(F)ccc3OC)C2=O)ccc1OC` (stereo not drawn) [SC0023] the IC50 (Human C5 [4]) was 111 nM.
For `CCCCCOc1cc(N2CC(COCC(=O)O)CN(Cc3cc(F)ccc3OC)C2=O)ccc1OC` (stereo not drawn) [SC0024], the IC50 (Human C5 [4]) was 59.3 nM.
Molecule `CCCCCOc1cc(N2CC(COCC(=O)N(C)C)CN(Cc3cc(F)ccc3OC)C2=O)ccc1OC` (stereo not drawn) [SC0025] has an IC50 (Human C5 [4]) of 59.4 nM.
Work on `CCCCCOc1cc(N2CC(COCC(=O)N(C)CCO)CN(Cc3cc(F)ccc3OC)C2=O)ccc1OC` (stereo not drawn) [SC0026] yielded an IC50 (Human C5 [4]) of 59.7 nM.
`CCCCCOc1cc(N2CC(CO)CN(Cc3ccc(Br)cc3OC)C2=O)ccc1OC` (stereo not drawn) [SC0027] gave an IC50 (Human C5 [4]) of 65.1 nM.
